Patent US4973597A, “Anticonvulsant agents” (Eli Lilly and Company, priority 1989, dated 1990)

Experiments:
seizures = details: man; cited from earlier work
[1] = tested on: tonic extensor seizures elicited by maximal electroshock; assay: electroshock induced convulsion inhibition assay (E.S.); format: in vivo, Cox standard strain albino male mice; details: mice; for ED50: Mus musculus, oral dose (gavage), 0.2 second, 50 milliampere corneal electroshock, inhibition of extensor tonic convulsions in half of the animals, at time of optimal response; for Time after dosing providing an approximately optimal response: oral gavage, time between dosing and administration of the electroshock
Procedure: In the electroshock induced convulsion inhibition assay (E.S.), the compound to be tested was suspended in acacia and administered by gavage to each of ten Cox standard strain albino male mice (18-24 g) at the dose level being investigated. Thirty to 180 minutes after compound administration, the mice were subjected to a 0.2 second, 50 milliampere electroshock through corneal electrodes. The animals were examined and evaluated immediately after the electroshock for the occurrence of clonic, flexor tonic, or extensor tonic convulsions, or death and the ED50 was determined for each compound as the dose which inhibited the occurrence of extensor tonic convulsions in one half of the animals immediately after the electroshock. For comparison, 18 milliamperes was usually sufficient to produce extensor tonic convulsions in about half of the control animals; at 50 milliamperes, almost all control animals (receiving vehicle only) died. The test results summarized in Table I are reported as the ED50 values calculated by computer interpolation of fixed doses at the time interval found to provide an optimal response after dosing. For comparison purposes, N-(2,6-dimethylphenyl)-3-pyridinecarboxamide, taught as an intermediate in Example 4 of U.S. Pat. No. 4,361,572, was also evaluated--this compound is referred to in Table I below as Compound A.

SMILES | plasma level that controls seizures (seizures) | ED50 [1] | Time after dosing providing an approximately optimal response [1]
O=C1NC(=O)C(c2ccccc2)(c2ccccc2)N1 [phenytoin] | ≥ 10 µg/mL | – | –
Cc1cccc(C)c1NC(=O)c1cccnc1 [Compound A, N-(2,6-dimethylphenyl)-3-pyridinecarboxamide, reference compound] | – | 24.5 mg/kg | 30 min
Cc1ccc(C(=O)Nc2c(C)cccc2Cl)cn1 [Example 3, N-(2-Chloro-6-methylphenyl)-6-methyl-3-pyridinecarboxamide] | – | 20.2 mg/kg | 60 min
Cc1ccc(C(=O)Nc2c(C)cccc2C)cn1 [Example 2, N-(2,6-Dimethylphenyl)-6-methyl-3-pyridinecarboxamide] | – | 6.7 mg/kg | 60 min
Cc1cccc(C)c1NC(=O)c1ccc(Cl)nc1 [Example 1, 6-Chloro-N-(2,6-dimethylphenyl)-3-pyridinecarboxamide] | – | 31.7 mg/kg | 30 min
CNc1ccc(C(=O)Nc2c(C)cccc2C)cn1 [Example 4, 6-(Methylamino)-N-(2,6-dimethylphenyl)-3-pyridinecarboxamide] | – | 8.7 mg/kg | 60 min
